# Values quoted from earlier work, collected in PMC3836577 (Microbial Biotechnology, 2010).
# Ends that are not written are not given here.
# System: S. aureus Sa113
# Conditions: literature value for comparison; ref Peschel et al., 2001
substance,measurement,value
"nisin (ITSISLCTPGCKTGALMGCNMKTATCHCSIHVSK; also: lantibiotic thioether rings and dehydrated residues not placed; UniProt P13068 24-57, looked up)",Activity against Sa113 (MIC),14 µM
